# In EP2438921A1, “23-O-Acetylshengmanol-3-O-beta-D-xylopyranoside and its medical use” (Universität Innsbruck, priority 2010, dated 2012):
# How the values were obtained:
# [1] = biological target: T1, GABAA receptors composed of α1, β2 and γ2S subunits (Homo sapiens, UniProt P14867+P18507+P47870); test: Modulation of GABA-induced chloride currents (IGABA), two-microelectrode voltage-clamp in Xenopus laevis oocytes expressing GABAA receptors; type: cell-based; conditions: for Stimulation of IGABA (%): 100 µM of compound, GABA EC3-10 concentration; for Maximal stimulation of IGABA: GABA EC3-10, α1β2γ2S receptors
# T1 construct: expressed in transfected cells; host or cells: Xenopus laevis oocytes (stage V-VI), injected with cRNA transcribed from cDNA templates in pCMV vector; α1:β2:γ2S cRNA ratio 1:1:10
# Description: Preparation of stage V-VI oocytes from Xenopus laevis, synthesis of capped off run-off poly(A^+) cRNA transcripts from linearized cDNA templates (pCMV vector) was performed as described (Khom et al. 2000). Briefly, female Xenopus laevis (NASCO, USA) were anaesthetised by exposing them for 15 minutes to a 0.2 % solution of MS-222 (methane sulfonate salt of 3-aminobenzoic acid ethyl ester; Sandoz) before surgically removing parts of the ovaries. Follicle membranes from isolated oocytes were enzymatically digested with 2 mg/ml collagenase (Type 1A, Sigma). One day after isolation, the oocytes were injected with about 10-50 nl of DEPC- treated water ([…], Sigma, Germany) containing the different cRNAs at a concentration of approximately 150 - 3000 ng/µl/subunit. The amount of cRNA was determined by means of a NanoDrop ND-1000 (Kisker-biotech, Steinfurt, Germany).
# To ensure expression of the gamma-subunit, cRNAs were mixed in a ratio of 1:1:10 (Boileau et al., 2002). Oocytes were stored at 18°C in ND96 solution (Methfessel et al., 1986). Electrophysiological experiments were done using the two-microelectrode voyage-clamp method at a holding potential of -70 mV making use of a TURBO TEC 01C amplifier (npi electronic, Tamm, Germany) and an Axon Digidata 1322A interface (Molecular Devices, Sunnyvale, CA). Using pCLAMP v.9.2 data acquisition was carried out. The bath solution contained 90 mM NaCl, 1 mM KCI, 1 mM MgCl2·6H2O, 1 mM CaCl2 and 5 mM HEPES (pH 7.4). Microelectrodes were filled with 2M KCl and had resistances between 1 and 3 MΩ (Khom et al., 2007).
# GABA and compound (extract, fraction or pure compound) were applied by means of fast perfusion system (see Baburin et al., 2006 for detail Drug or control solutions were applied by means of a TECAN Miniprep 60 permitting automation of the experiments. Oocytes with maximal current amplitudes >3 µA were discarded to exclude voltage-clamp errors (Khom et al., 2007).
# Stimulation of chloride currents by modulators of the GABAA receptor was measured at a GABA concentration eliciting between 3 and 10% of the maximal current amplitude (EC3-10). The EC3-10 was determined at the beginning of each experiment. Enhancement of the chloride current was defined as (I(GABA+Comp)/IGABA) - 1, where I(GABA+Comp) is the current response in the presence of a given compound (extract, fraction or pure compound) and IGABA is the control GABA current. To measure the sensitivity of the GABAA receptor for a given compound, it was applied for an equilibration period of 1 minute before applying GABA ([…]). Concentration-response curves were generated and the data were fitted by non-iinear regression analysis using Origin software (OriginLab Corporation, USA). Data were fitted to the equation: (1)/(1 + (((EC50)/([Comp])))^nH), [formula] where nH is the Hill coefficient. Each data point represents the mean ± S.E. from at least 4 oocytes and ≥ 2 oocyte batches. Statistical significance was calculated using paired Student t-test with a confidence interval of p < 0.05.
# As described above, dried and cut sub-aerial parts of A. racemosa were grinded and extracted with methanol. The resulting crude extract (A0) was subsequently partitioned between water and organic solvents of increasing polarity giving diethyl ether (A1), ethyl acetate (A2) and 1-butanol (A3) fractions. Obtained extracts and the remaining aqueous layer (A4) were tested for their ability to modulate IGABA at a concentration of 100 µg/mL. To analyse the modulation of IGABA by black cohosh extracts and isolated compounds, GABAA receptors composed of α1, β2 and γ2s subunits were expressed in Xenopus oocytes. Stimulation of IGABA was analysed by means of the 2-microelectrode voyage-clamp technique. These and all subsequent experiments were carried out at a GABA EC3-10 concentration.
# mice [2] = test: Open Field Test (OF); type: in vivo, mice (C57BI/6N); conditions: for distance traveled in the open field in 10 min: 20 mg/kg/bodyweight i.p., 30 min prior to testing, control 38.2 ± 1.8 m
# Description: (§1) Male mice (C57BI/6N) were obtained from Charles River Laboratories (Germany).
# (§2) For maintenance mice were group housed with free access to food and water. Temperature was fixed to 23°C and 60% humidity with a 12 h light-dark cycle (lights on 0700-1900 hours). Mice at 3-8 months age were tested in all experiments (Khom et al., 2010).
# (§3) Mice were transferred to the testing facility 24 h before commencement of experiments. Tests were performed between 0900 and 1300 hours. All tests were evaluated by an experimenter blinded to the administered compound, 30 min prior to testing animals were injected either with saline (0.9% NaCl-solution) as a control or with 23-O-acetylshengmanol-3-O-β-D-xylopyranosid (i.e., compound 4) and actein (i.e., compound 1), respectively (50 mg/250 µL stock prepared in 100% DMSO) at the indicated doses (0.2 mg/kg, 0.6 mg/kg, 2 mg/kg, 6 mg/kg, 20 mg/kg and 60 mg/kg bodyweight). All injection solutions contained 3% Polysorbat 80 and 10% of DMSO.
# To determine explorative behaviour mice treated (n=9 for all doses) with compound 4 and control (n=11 mice were studied in the OF.
# Open field behavior was tested over 10 min in a 50x50 cm box equipped with infrared rearing detection. Illumination was set to 150 lux. Explorative behavior was recorded and analyzed using the ActiMot 2 equipment (infrared beams) and software (TSE-systems, Bad Homburg, Germany). Arenas were subdivided into border (up to 8 cm from wall), center (20x20 cm, ie 16% of total area), and intermediate area according to the recommendations of EMPRESS (European Mouse Phenotyping Resource of Standardised Screens; http://empress.har.mrc.ac.uk).
# [3] = biological target: T1, GABAA receptors composed of α1, β2 and γ2S subunits; test: Modulation of GABA-induced chloride currents (IGABA), two-microelectrode voltage-clamp in Xenopus laevis oocytes expressing GABAA receptors; type: cell-based; conditions: IGABA-max induced by application of 1mM GABA; data not shown
# mice [4] = test: Light/Dark Choice Test (LDT); type: in vivo, mice (C57BI/6N)
# Description: as §1, §2, §3
# Explorative behavior in a brightly lit area (400 lux) was investigated by insertion of a black box into the open field arena, covering one third of the space. Time spent and distance travelled was measured over a 10 min period in the open area. One small field directly at the entrance to the black box was assigned as transition zone. To reach the larger compartment assigned as open area, the mouse had to leave the dark area completely. Behaviour was recorded and analyzed by means of the ActiMot2 system and software (TSE-systems, Bad Homburg, Germany).
# mice [5] = test: Stress-induced Hyperthermia Test (SIH); type: in vivo, mice (C57BI/6N)
# Description: as §1, §2, §3
# A temperature probe, lubricated with petrolatum, was inserted into the rectum of the mouse for a depth of up to 2 cm. […]
# Prior to i.p injection of compound or saline the basal body temperature was determined. 3h after i.p injection, temperature was measured twice by means of a TH-5 Thermalert Monitoring Thermometer combined with a RET-3 rectal probe for mice. […]
# T1 sequence (P14867 28-456): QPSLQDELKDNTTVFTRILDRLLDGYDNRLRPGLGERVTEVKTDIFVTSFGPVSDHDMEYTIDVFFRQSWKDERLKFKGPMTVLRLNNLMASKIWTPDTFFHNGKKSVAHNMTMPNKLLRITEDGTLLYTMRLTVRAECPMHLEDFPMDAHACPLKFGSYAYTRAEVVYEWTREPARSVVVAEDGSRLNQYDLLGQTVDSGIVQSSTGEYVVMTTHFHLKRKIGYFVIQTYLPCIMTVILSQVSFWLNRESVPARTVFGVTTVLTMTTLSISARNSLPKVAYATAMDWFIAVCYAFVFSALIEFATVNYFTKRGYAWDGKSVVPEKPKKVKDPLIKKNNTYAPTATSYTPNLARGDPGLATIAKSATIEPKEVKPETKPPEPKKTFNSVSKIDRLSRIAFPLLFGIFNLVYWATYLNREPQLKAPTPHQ
# T1 sequence (P47870 26-512): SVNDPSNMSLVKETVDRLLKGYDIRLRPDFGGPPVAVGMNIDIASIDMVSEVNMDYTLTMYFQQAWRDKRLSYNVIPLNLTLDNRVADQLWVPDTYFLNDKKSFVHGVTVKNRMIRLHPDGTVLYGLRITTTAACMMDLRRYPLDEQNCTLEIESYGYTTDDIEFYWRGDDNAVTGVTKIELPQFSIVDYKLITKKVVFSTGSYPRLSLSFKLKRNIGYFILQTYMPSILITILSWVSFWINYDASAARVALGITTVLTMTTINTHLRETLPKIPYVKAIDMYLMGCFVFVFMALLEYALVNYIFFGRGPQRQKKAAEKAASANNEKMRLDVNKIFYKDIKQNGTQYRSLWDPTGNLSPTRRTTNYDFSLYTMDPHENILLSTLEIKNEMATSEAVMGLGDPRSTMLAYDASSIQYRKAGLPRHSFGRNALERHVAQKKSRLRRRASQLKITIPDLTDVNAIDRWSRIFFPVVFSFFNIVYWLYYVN
# T1 sequence (P18507 40-467 isoform P18507-1 limits assumed): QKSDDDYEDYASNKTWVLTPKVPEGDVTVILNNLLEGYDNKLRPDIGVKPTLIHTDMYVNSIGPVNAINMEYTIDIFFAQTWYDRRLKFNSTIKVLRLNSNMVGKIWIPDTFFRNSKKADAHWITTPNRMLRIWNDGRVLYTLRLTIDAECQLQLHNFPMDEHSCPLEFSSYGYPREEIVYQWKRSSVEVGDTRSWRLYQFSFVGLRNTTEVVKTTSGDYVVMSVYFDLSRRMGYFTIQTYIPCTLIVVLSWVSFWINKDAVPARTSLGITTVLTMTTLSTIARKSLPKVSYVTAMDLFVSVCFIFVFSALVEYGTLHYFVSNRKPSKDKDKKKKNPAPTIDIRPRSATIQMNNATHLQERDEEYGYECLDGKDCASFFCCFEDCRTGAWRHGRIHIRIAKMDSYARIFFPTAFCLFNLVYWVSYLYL
Stimulation of IGABA (%) [1] [%],Compound,EC50 [1] [µM],Maximal stimulation of IGABA ([1]; compound 4 at 300 µM) [%],further results
126 ± 29,12-acetylacteol [Compound 1a],,,
,"CC(=O)O[C@@H]1C[C@@]23C[C@@]24CC[C@H](O[C@@H]2OC[C@@H](O)[C@H](O)[C@H]2O)C(C)(C)[C@@H]4CC[C@H]3[C@]2(C)C[C@@H]3O[C@]4(C[C@@H](C)[C@@H]3[C@@]12C)O[C@H](O)[C@@]1(C)O[C@@H]41 [Compound 1, actein]",36 ± 14,378 ± 64,distance traveled in the open field in 10 min (mice [2]): 30.6 ± 2.1 m
10 ± 4,"CC(=O)O[C@@H]1C[C@@]23C[C@@]24CC[C@H](O[C@@H]2OC[C@@H](O)[C@H](O)[C@H]2O)C(C)(C)[C@@H]4CC[C@H]3[C@]2(C)C[C@@H]3O[C@@]4(C[C@@H](C)[C@@H]3[C@@]12C)OC[C@@]1(C)O[C@@H]41 [Compound 3, 23-epi-26-deoxyactein]",,,
,"CC(=O)OC(CC(C)C1C(=O)C(O)C2(C)C3CCC4C(C)(C)C(OC5OCC(O)C(O)C5O)CCC45CC35CCC12C)C1OC1(C)C [Compound 4, 23-O-acetylshengmanol-3-O-β-D-xylopyranoside]",27 ± 8,,"distance traveled in the open field in 10 min (mice [2]): 22.6 ± 2.8 m; ambulation in all areas of the OF and overall ambulation compared to control (mice [2]; doses ≥2 mg/kg/bodyweight i.p.): significantly (p<0.05) decreased ambulation; reduced distance compared to control littermates (mice [2]; doses ≥20 mg/kg i.p.): approximately 50%; chloride currents induced in the absence of GABA [3]: ≤ 1 % of IGABA-max; distance travelled in the lit area (mice [4]; i.p., data not shown): without significant effects; time spent in the lit area (400 Lux) (mice [4]; ip, 0.6 mg/kg, 10 min): 265 ± 52 s; Transitions from the dark compartment to the lit area (mice [4]; vs vehicle group, data not shown): did not differ; body temperature increase upon stress (ΔT) (mice [5]; 6 mg/kg/bodyweight i.p., 3h after injection, control 1.2 ± 0.1°): 0.1 ± 0.1 °; body temperature increase upon stress (ΔT) compared to control (mice [5]; i.p., doses of Figure 9): significantly (p<0.05) smaller increase; IGABA enhancement, times stronger than the other isolated compounds ([1]; 100 µM, GABA EC3-10): about 10 times"
64 ± 14,"CC(=O)O[C@H](C[C@@H](C)[C@H]1C(=O)[C@H](O)[C@@]2(C)[C@@H]3CC[C@H]4C(C)(C)[C@@H](O)CC[C@@]45C[C@@]35CC[C@]12C)[C@@H]1OC1(C)C [Compound 4a, 23-O-acetylshengmanol]",,,
5 ± 2,"CC(=O)O[C@@H]1C[C@@]23C[C@@]24CC[C@H](O[C@@H]2OC[C@@H](O)[C@H](O)[C@H]2O)C(C)(C)[C@@H]4CC=C3[C@]2(C)C[C@@H]3O[C@@]4(O)[C@H](OC(C)(C)[C@H]4O)[C@@H](C)[C@@H]3[C@@]12C [Compound 5, cimiracemoside F]",,,
,"C[C@@H]1C[C@H]2O[C@@]3(O[C@@H]2C(C)(C)O)[C@H](O)[C@@]2(C)[C@@H]4CC[C@H]5C(C)(C)[C@@H](O[C@@H]6OC[C@@H](O)[C@H](O)[C@H]6O)CC[C@@]56C[C@@]46CC[C@]2(C)[C@@H]13 [Compound 6, cimigenol-3-O-β-D-xylopyranoside]",28 ± 17,256 ± 40,
,"CC(=O)OC(C)(C)[C@H]1O[C@@]23O[C@@H]1C[C@@H](C)[C@@H]2[C@@]1(C)CC[C@@]24C[C@@]25CC[C@H](O[C@@H]2OC[C@H](O)[C@H](O)[C@H]2O)C(C)(C)[C@@H]5CC[C@H]4[C@]1(C)[C@H]3O [Compound 8, 25-O-acetylcimigenol-3-O-α-L-arabinopyranoside]",26 ± 7,289 ± 45,"Emax at 300 µM ([1]; read-out: Maximal stimulation of IGABA, GABA EC3-10, α1β2γ2S receptors, compound 4 at 300 µM): < 300%"

Compound,Stimulation of IGABA (%) [1] [%],EC50 [1] [µM],Maximal stimulation of IGABA ([1]; compound 4 at 300 µM) [%],further results
"CC(=O)OC1CC23CC24CCC(OC2OCC(O)C(O)C2O)C(C)(C)C4CCC3C2(C)CC3OC4(CC(C)C3C12C)OCC1(C)OC14 (centres unmarked) [Compound 2, 26-deoxyactein]",10 ± 6,,,
"C=C(C)[C@H]1O[C@@]23O[C@@H]1C[C@@H](C)[C@@H]2[C@@]1(C)CC[C@@]24C[C@@]25CC[C@H](O[C@@H]2OC[C@@H](O)[C@H](O)[C@H]2O)C(C)(C)[C@@H]5CC[C@H]4[C@]1(C)[C@H]3O [Compound 10, 25-O-anhydrocimigenol-3-O-β-D-xylopyranoside]",-76 ± 7,26 ± 7,,
